From ChEMBL document CHEMBL5385933, “Preparation and Preliminary Structure-Activity Relationship Studies of Schwarzinicine A Analogs as Vasorelaxant Agents” (J Nat Prod, 2024)

Legend:
[1] = system: Aorta; experiment: Vasorelaxant activity in Sprague-Dawley rat aortic rings assessed as reduction in phenylephrine-induced contractions by organ bath assay; assay type: functional, tissue-based
[2] = system: Aorta; experiment: Vasorelaxant activity in Sprague-Dawley rat aortic rings assessed as reduction in phenylephrine-induced contractions by measuring maximum efficacy by organ bath assay relative to control; assay type: functional

CCCC(Cc1ccccc1)NCCc1cccs1 (centres undefined)
EC50 [1]: 3500 nM | Emax [2]: 134%

CCC(CCc1ccc(C#N)cc1)NCCc1ccccc1 (centres undefined)
EC50 [1]: 1960 nM | Emax [2]: 125%

CCCC(Cc1ccccc1)NCCc1ccc(F)cc1 (centres undefined)
EC50 [1]: 3830 nM | Emax [2]: 120%

c1ccc(CCNC(CCc2ccccc2)Cc2ccccc2)cc1 (centres undefined)
EC50 [1]: 2300 nM | Emax [2]: 116%

Fc1ccc(CCNC(CCc2ccccc2)Cc2ccc(Cl)cc2)cc1 (centres undefined)
EC50 [1]: 650 nM | Emax [2]: 92.2%

CCC(CCc1ccco1)NCCc1ccccc1 (centres undefined)
EC50 [1]: 180 nM | Emax [2]: 122%

COc1ccc(CCNC(Cc2ccccc2)Cc2ccccc2)cc1OC
EC50 [1]: 1860 nM | Emax [2]: 115%

CN(CCc1ccccc1)C(CCc1ccccc1)Cc1ccccc1 (centres undefined)
EC50 [1]: 40 nM | Emax [2]: 93.5%

CCCC(Cc1ccccc1)NCCc1ccc(OC)cc1 (centres undefined)
EC50 [1]: 1280 nM | Emax [2]: 114%

CCC(CCCCc1ccccc1)NCCc1ccccc1 (centres undefined)
EC50 [1]: 3360 nM | Emax [2]: 125%

CCCCCCCC(CCC)NCCc1ccccc1 (centres undefined)
EC50 [1]: 1050 nM | Emax [2]: 89.7%

c1ccc(CCNC2Cc3ccccc3C2)cc1
EC50 [1]: 200 nM | Emax [2]: 113%

CCCC(Cc1ccc(Cl)cc1)NCCc1ccc(F)cc1 (centres undefined)
EC50 [1]: 1090 nM | Emax [2]: 99.1%

CCCC(CCCCc1ccccc1)NCCc1ccccc1 (centres undefined)
EC50 [1]: 2020 nM | Emax [2]: 121%

CCCC(Cc1ccccc1)NCCc1c[nH]c2ccccc12 (centres undefined)
EC50 [1]: 440 nM | Emax [2]: 114%

c1ccc(CCC(Cc2ccccc2)N(CCc2ccccc2)CC2CC2)cc1 (centres undefined)
EC50 [1]: 140 nM | Emax [2]: 75.4%

CCC(CCc1cccs1)NCCc1ccccc1 (centres undefined)
EC50 [1]: 190 nM | Emax [2]: 120%

CCCC(Cc1ccccc1)NCCC#N (centres undefined)
EC50 [1]: 1430 nM | Emax [2]: 89.5%

CCCNC(CCc1ccccc1)Cc1ccccc1 (centres undefined)
EC50 [1]: 3830 nM | Emax [2]: 121%

CCCC(Cc1ccc(C)cc1)NCCc1ccc(F)cc1 (centres undefined)
EC50 [1]: 1230 nM | Emax [2]: 118%

CCCC(CC1CCCCC1)NCCC1CCCCC1 (centres undefined)
EC50 [1]: 320 nM | Emax [2]: 83.6%

CCCC(Cc1ccccc1)NCCN1CCCCC1 (centres undefined)
EC50 [1]: 130 nM | Emax [2]: 110%

CCCC(Cc1ccccc1)NC1CCCC1 (centres undefined)
EC50 [1]: 3090 nM | Emax [2]: 116%

CCCC(Cc1ccccc1)NCCCCc1ccccc1 (centres undefined)
EC50 [1]: 2740 nM | Emax [2]: 127%

C[N+](C)(CCc1ccccc1)C(CCc1ccccc1)Cc1ccccc1 (centres undefined)
EC50 [1]: 1970 nM | Emax [2]: 136%

CC(=O)N(CCc1ccccc1)C(CCc1ccccc1)Cc1ccccc1 (centres undefined)
EC50 [1]: 20300 nM | Emax [2]: 82.9%

CCCC(Cc1ccccc1)NC1CC2CCC1C2 (centres undefined)
EC50 [1]: 480 nM | Emax [2]: 106%

CCCC(CC1CC1)NCCc1ccccc1 (centres undefined)
EC50 [1]: 1510 nM | Emax [2]: 116%

CCCC(Cc1ccccc1)NCCc1ccccc1 (centres undefined)
EC50 [1]: 3060 nM | Emax [2]: 113%

CCCC(CC1CCCCC1)NCCN1CCCCC1 (centres undefined)
EC50 [1]: 220 nM | Emax [2]: 88.4%

CCN(CCc1ccccc1)C(CCc1ccccc1)Cc1ccccc1 (centres undefined)
EC50 [1]: 1210 nM | Emax [2]: 85%

CCCC(Cc1ccccc1)NCCN1CCNCC1 (centres undefined)
EC50 [1]: 1040 nM | Emax [2]: 107%

c1ccc(CCC(Cc2ccccc2)N(CCc2ccccc2)CCc2ccccc2)cc1 (centres undefined)
EC50 [1]: 1390 nM | Emax [2]: 68.9%

CCCC(Cc1ccccc1)NCCc1c[nH]cn1 (centres undefined)
EC50 [1]: 1370 nM | Emax [2]: 122%

CCCC(Cc1csc2ccccc12)NCCc1ccccc1 (centres undefined)
EC50 [1]: 370 nM | Emax [2]: 112%

CCCC(Cc1ccccc1)NCCc1ccccn1 (centres undefined)
EC50 [1]: 1130 nM | Emax [2]: 114%

CCCC(Cc1ccc(Cl)cc1)NCCc1ccccc1 (centres undefined)
EC50 [1]: 1950 nM | Emax [2]: 114%

CCC(CCc1ccco1)NCCC1CCCCC1 (centres undefined)
EC50 [1]: 2120 nM | Emax [2]: 106%

CCCC(Cc1ccccc1)NCCc1ccc([N+](=O)[O-])cc1 (centres undefined)
EC50 [1]: 1730 nM | Emax [2]: 119%

COc1ccc(CCNC(C)Cc2ccc(OC)c(OC)c2)cc1OC (centres undefined)
EC50 [1]: 2890 nM | Emax [2]: 104%

CCCC(Cc1cccs1)NCCc1ccccc1 (centres undefined)
EC50 [1]: 410 nM | Emax [2]: 110%

CCCC(Cc1ccccc1)NCCN1CCOCC1 (centres undefined)
EC50 [1]: 2740 nM | Emax [2]: 89.8%

CCCC(Cc1ccc(C)cc1)NCCc1ccccc1 (centres undefined)
EC50 [1]: 2640 nM | Emax [2]: 120%

CCC(Cc1ccccc1)NCCc1ccccc1 (centres undefined)
EC50 [1]: 1120 nM | Emax [2]: 120%

c1ccc2c(c1)CCC(NC1Cc3ccccc3C1)C2 (centres undefined)
EC50 [1]: 1320 nM | Emax [2]: 122%

COc1ccc(CCC(Cc2ccc(OC)c(OC)c2)NCCc2ccc(OC)c(OC)c2)cc1 (centres undefined)
EC50 [1]: 2990 nM | Emax [2]: 122%

CCCC(Cc1ccccc1)NCCc1ccc(O)cc1 (centres undefined)
EC50 [1]: 49 nM | Emax [2]: 111%

CCC(CCc1ccccc1)NCCc1ccccc1 (centres undefined)
EC50 [1]: 1240 nM | Emax [2]: 11.5%

CCCC(CC1CCCCC1)NCCc1ccccc1 (centres undefined)
EC50 [1]: 1840 nM | Emax [2]: 114%

CCC(CCc1ccco1)NCCN1CCCCC1 (centres undefined)
EC50 [1]: 420 nM | Emax [2]: 97.8%

CCCC(Cc1ccccc1)NC1Cc2ccccc2C1 (centres undefined)
EC50 [1]: 350 nM | Emax [2]: 114%

CCCC(Cc1ccccc1)NCCC1=CCCCC1 (centres undefined)
EC50 [1]: 2410 nM | Emax [2]: 117%

CCCC(CC1CCCCC1)NCCC1=CCCCC1 (centres undefined)
EC50 [1]: 1000 nM | Emax [2]: 84.7%

CCCC(Cc1ccc2ccccc2c1)NCCc1ccccc1 (centres undefined)
EC50 [1]: 1600 nM | Emax [2]: 115%

CCCC(Cc1ccccc1)NC1CC1 (centres undefined)
EC50 [1]: 2250 nM | Emax [2]: 114%

CCCC(Cc1ccc2c(c1)OCO2)NCCc1ccccc1 (centres undefined)
EC50 [1]: 1060 nM | Emax [2]: 113%

c1ccc(CCNC2CCc3ccccc3C2)cc1 (centres undefined)
EC50 [1]: 500 nM | Emax [2]: 119%
